Experimental data as given in paper PMC12305662, “Fragment-Based Development of Small Molecule Inhibitors Targeting Mycobacterium tuberculosis Cholesterol Metabolism” (Journal of Medicinal Chemistry, 2025).
Converted amounts (≈) assume the structure as drawn. “And” between values parts separate entries of the source, which are not always exact repeats. Identical values can stand only once. Like-named read-outs stand apart in the source and are kept apart here.

Columns and labels:
[1] = target: T1, CYP2C9 (Homo sapiens, UniProt P11712); test: Inhibition of human liver microsomal P450s; format: in vitro ADME
T1 construct: from tissue; host or cells: human liver microsomes
Description: (§1) Table S8. Inhibition of human liver microsomal P450s. Inhibition constants (IC 50 values, µM) of
(§2) following substrates: CYP1A-ethoxyresorufin, CYP2C19- mephenytoin, CYP2C9-tolbutamide, CYP2D6-
(§3) dextromethorphan, CYP3A4-midazolam/testosterone.

[2] = target: T2, CYP3A4 (Homo sapiens, UniProt P08684); test: Inhibition of human liver microsomal P450s; format: in vitro ADME
T2 construct: from tissue; host or cells: human liver microsomes
Description: as §1, §2, §3

[3] = target: T3, CYP1A (Homo sapiens, UniProt P05177); test: Inhibition of human liver microsomal P450s; format: in vitro ADME
T3 construct: from tissue; host or cells: human liver microsomes
T3 sequence (P05177 2-516 limits assumed): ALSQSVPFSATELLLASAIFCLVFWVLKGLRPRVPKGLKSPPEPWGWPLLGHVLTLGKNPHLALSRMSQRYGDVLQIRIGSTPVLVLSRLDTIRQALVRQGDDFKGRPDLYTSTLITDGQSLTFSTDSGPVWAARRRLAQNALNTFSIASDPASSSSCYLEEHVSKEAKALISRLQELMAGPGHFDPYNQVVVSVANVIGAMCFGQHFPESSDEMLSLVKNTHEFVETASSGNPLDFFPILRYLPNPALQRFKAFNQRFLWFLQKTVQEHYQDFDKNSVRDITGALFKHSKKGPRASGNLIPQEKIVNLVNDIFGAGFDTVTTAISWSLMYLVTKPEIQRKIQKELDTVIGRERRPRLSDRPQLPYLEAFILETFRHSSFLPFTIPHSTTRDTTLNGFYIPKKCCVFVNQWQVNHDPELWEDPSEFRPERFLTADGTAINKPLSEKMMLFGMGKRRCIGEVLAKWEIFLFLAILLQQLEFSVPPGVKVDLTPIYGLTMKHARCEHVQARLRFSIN
Description: as §1, §2, §3

[4] = target: T4, CYP2C19 (Homo sapiens, UniProt P33261); test: Inhibition of human liver microsomal P450s; format: in vitro ADME
T4 construct: from tissue; host or cells: human liver microsomes
Description: as §1, §2, §3

[5] = target: T5, CYP2D6 (Homo sapiens, UniProt P10635); test: Inhibition of human liver microsomal P450s; format: in vitro ADME
T5 construct: from tissue; host or cells: human liver microsomes
Description: as §1, §2, §3

[6] = test system: Mtb CDC1551; test: Extracellular Mtb growth on cholesterol, MABA MIC99; format: cell-based, Mycobacterium tuberculosis; conditions: Mycobacterium tuberculosis, CDC1551, 336 h; cholesterol as sole carbon source; 2 weeks post-compound treatment; read-out: MABA-MIC99 (W2) CDC1551, cholesterol
[7] = target: T6, CYP125 (Mycobacterium tuberculosis, UniProt P9WPP1); test: biochemical; format: binding
[8] = test system: MDR-TB strain K26b00MR 113; test: microbe, parasite or virus in culture; format: cell-based, Mycobacterium tuberculosis; conditions: Mycobacterium tuberculosis, K26b00MR 113
[9] = test system: Mtb CDC1551; test: Depletion of intracellular ATP (BacTiter Glo), Mtb on cholesterol; format: cell-based; conditions: Mycobacterium tuberculosis, cholesterol as sole carbon source
[10] = target: T6, CYP125; test: LC-MS substrate turnover assay (cholest-4-en-3-one); format: biochemical
[11] = test system: HepG2 cells; test: HepG2 cytotoxicity assay (CellTiter Glo ATP); format: cell-based; conditions: ATP (RLU)
Description: Compounds were tested against HepG2 cells for their ability to inhibit ATP production as a measure of cytotoxicity. HepG2 cells were cultured in DMEM supplemented with 10% (v/v) FBS, Hepes, L-glutamine and glucose or galactose. Compounds were serial diluted in microtiter plates (as described above) and HepG2 cells were added at a final concentration of 20,000 cells per well. Inhibition of ATP levels was noted by adding CellTiter Glo (Promega) reagent at a 1:10 dilution and luminescence was noted after 10 min incubation at room temperature.

[12] = test system: Mtb CDC1551; test: Depletion of intracellular ATP, Mtb on glucose; conditions: read-out: ATP IC50 (W1) CDC1551, glucose media; glucose as sole carbon source; 1 week
Description: (Mtb) H37Rv or CDC1551 strains were grown in Middlebrook 7H9 broth medium (Difco) supplemented with 0.3 g/L casitone, 0.81 g/L NaCl, 0.05% (v/v) tyloxapol, and either 97 mg/L cholesterol, 4 g/L glucose, or 0.2% glycerol. For inhibitor assays, a 10-fold serial dilution of the test compounds was made in the desired medium in duplicate rows of a 96-well plate. Mtb cells were then added to all the wells at the final concentration of 1 × 10^4 CFU, and plates were incubated at 37 °C for up to 15 days. Minimum inhibitory concentrations (MIC99) were determined using the Microplate Alamar Blue Assay (MABA) on day 15.
BacTiter Glo reagent (Promega) was added to microtiter plates (1:10 dilution) and luminescence was recorded after 15 min of incubation at room temperature. […] Isoniazid or p-amino salicylic acid were used as positive control compounds for all experiments. Reported MIC and IC50 values are the mean of duplicate treatments.

[13] = test system: Mtb/iniB reporter (cell wall damage response); format: cell-based, Mycobacterium tuberculosis; conditions: 50–0.05 μM, days 1, 2, 4, 7
[14] = test system: Mtb H37Rv pATB45luc in THP-1 macrophages; test: microbe, parasite or virus in culture; format: cell-based; conditions: Mycobacterium tuberculosis, 120 h, 5 days post-compound treatment, mean ± SD n = 2, read-out: intracellular growth Mtb IC50
[15] = test system: several human P450 isoforms (panel: CYP1A, CYP2C19, CYP2C9, CYP2D6, CYP3A4); test: in vitro; format: in vitro ADME
Description: As several P450 isoforms were inhibited as concentrations <5 μM, the compound has potential to cause drug–drug interactions and further optimization of the benzylpyridine scaffold to improve CYP125/142 selectivity would be required for in vivo applications.
as §1, §2, §3

[16] = test system: Mtb/recA reporter (DNA damage response); format: cell-based, Mycobacterium tuberculosis; conditions: 50–0.05 μM, days 1, 2, 4, 7
[17] = test system: Mtb (Erdman); test: Extracellular Mtb (Erdman) growth on cholesterol-supplemented (0.01%) media, MABA; format: cell-based, Mycobacterium tuberculosis; conditions: Mycobacterium tuberculosis, ERDMAN, 168 h, MABA 1 week post-compound treatment, mean ± SD n = 3, read-out: mixed media IC50 (Erdman)
[18] = test system: H37Rv Mtb; test: Extracellular Mtb growth, MABA MIC90 (drug susceptible strain); format: cell-based; conditions: Mycobacterium tuberculosis
[19] = test system: Mtb/radA reporter (DNA damage response); format: cell-based, Mycobacterium tuberculosis; conditions: 50–0.05 μM, days 1, 2, 4, 7

T6 sequence (P9WPP1 whole entry): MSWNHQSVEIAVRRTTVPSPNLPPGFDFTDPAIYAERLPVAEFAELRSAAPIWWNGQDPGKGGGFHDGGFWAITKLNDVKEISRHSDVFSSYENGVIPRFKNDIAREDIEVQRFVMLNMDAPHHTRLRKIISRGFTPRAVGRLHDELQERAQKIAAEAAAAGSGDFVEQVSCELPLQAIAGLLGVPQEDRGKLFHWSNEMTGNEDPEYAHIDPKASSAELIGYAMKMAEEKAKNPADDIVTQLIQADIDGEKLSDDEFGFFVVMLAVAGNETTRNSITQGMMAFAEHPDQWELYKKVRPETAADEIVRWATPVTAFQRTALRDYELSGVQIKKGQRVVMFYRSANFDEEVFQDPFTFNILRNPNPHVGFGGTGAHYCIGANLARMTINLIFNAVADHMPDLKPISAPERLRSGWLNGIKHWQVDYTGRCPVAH
T2 sequence (P08684 whole entry): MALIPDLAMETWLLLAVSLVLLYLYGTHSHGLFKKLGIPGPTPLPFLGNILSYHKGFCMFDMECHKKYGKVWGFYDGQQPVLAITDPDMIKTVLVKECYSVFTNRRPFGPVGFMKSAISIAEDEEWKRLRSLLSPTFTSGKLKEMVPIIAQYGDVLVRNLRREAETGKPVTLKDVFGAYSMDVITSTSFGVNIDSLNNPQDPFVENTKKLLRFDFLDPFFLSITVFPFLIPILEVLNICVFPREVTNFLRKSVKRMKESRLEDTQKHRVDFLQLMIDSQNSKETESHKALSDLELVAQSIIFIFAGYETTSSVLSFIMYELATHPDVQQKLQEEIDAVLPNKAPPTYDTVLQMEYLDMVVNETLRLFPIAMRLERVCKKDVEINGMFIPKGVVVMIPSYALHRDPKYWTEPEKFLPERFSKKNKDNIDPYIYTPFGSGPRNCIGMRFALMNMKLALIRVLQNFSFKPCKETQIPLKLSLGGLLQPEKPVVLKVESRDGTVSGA
T5 sequence (P10635 whole entry): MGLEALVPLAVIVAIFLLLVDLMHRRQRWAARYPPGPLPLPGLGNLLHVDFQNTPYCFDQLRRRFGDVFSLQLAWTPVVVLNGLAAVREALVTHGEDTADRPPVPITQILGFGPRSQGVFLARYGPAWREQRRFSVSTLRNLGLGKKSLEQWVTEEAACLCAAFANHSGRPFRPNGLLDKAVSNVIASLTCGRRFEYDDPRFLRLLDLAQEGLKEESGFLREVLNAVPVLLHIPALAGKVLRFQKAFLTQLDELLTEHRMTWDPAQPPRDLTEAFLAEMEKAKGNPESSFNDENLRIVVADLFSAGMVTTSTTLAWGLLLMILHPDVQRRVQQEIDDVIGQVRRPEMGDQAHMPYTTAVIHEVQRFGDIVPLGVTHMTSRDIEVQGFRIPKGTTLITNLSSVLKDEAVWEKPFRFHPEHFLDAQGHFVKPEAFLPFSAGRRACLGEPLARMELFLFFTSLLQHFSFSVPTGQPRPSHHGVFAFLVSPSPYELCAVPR
T4 sequence (P33261 whole entry): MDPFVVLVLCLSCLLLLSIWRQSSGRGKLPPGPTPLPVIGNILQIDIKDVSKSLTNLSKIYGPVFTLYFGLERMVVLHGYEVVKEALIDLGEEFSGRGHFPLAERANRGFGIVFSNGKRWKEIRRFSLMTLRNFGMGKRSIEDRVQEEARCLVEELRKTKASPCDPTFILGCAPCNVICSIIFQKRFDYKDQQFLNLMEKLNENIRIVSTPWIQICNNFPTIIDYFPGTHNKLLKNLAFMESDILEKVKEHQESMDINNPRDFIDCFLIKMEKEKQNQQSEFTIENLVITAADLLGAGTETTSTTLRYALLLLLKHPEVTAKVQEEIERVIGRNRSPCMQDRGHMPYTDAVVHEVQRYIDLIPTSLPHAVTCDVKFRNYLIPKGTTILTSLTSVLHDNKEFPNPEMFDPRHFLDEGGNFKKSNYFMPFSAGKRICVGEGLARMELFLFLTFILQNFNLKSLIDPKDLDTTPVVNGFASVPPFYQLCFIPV
T1 sequence (P11712 whole entry): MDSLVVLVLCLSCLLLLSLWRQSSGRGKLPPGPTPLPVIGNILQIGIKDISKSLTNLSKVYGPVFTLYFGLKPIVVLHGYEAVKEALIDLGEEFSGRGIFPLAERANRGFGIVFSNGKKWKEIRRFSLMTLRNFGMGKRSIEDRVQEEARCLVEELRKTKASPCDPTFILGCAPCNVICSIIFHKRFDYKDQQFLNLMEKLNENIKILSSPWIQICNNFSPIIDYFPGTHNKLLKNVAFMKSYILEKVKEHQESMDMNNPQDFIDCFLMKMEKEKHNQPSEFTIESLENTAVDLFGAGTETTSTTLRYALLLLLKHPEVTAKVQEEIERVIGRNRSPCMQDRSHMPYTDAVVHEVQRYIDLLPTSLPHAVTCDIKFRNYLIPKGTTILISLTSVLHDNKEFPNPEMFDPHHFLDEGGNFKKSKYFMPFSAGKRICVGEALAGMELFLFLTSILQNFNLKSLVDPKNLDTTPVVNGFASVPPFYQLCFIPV

In the case of `COc1ccc(CNc2ccc(Cc3ccncc3)cc2)cc1` [5m, N-(4-Methoxybenzyl)-4-(pyridin-4-ylmethyl)aniline], the IC50 [1] is reported as 1860 nM, the IC50 ([2]; CYP3A4 IC50 (midazolam), substrate midazolam (first value of cell)) is reported as 520 nM and the IC50 ([2]; CYP3A4 IC50 (testosterone), substrate testosterone (second value of cell)) is reported as 1820 nM. For the same molecule, the IC50 [3] was 820 nM, the IC50 [4] was 440 nM and the IC50 [5] was 330 nM. The MIC99 [6] was 13 µM (≈ 3.96 µg/mL), the “improvement in binding affinity KD 1a/5m, CYP125” value [7] was over 1000 fold and the “ligand efficiency (LE)” value [7] was over 0.4. For the same molecule, the “group efficiency (GE) of the benzylamine” value ([7]; CYP125 and CYP142) was 0.20–0.50, the Kd ([7]; KD, dual CYP125/142 ligand) was 0.04 to 0.16 µM and ~0.1 µM and the “ΔΔG [5m-1a], CYP125” value ([7]; proportion of binding affinity attributed to the 1a-ii hotspot) was 0.5. For the same molecule, the Kd ([7]; read-out: KD (μM) CYP125) was 0.04 ± 0.021 µM, the MIC90 ([8]; 168 h, read-out: MIC90 (W1) MDR-TB, MABA 1 week post-compound treatment) was 0.39 µM (≈ 0.119 µg/mL) and the MIC90 ([8]; 336 h, read-out: MIC90 (W2) MDR-TB, MABA 2 weeks post-compound treatment) was 12.5 µM (≈ 3.8 µg/mL). For the same molecule, the IC50 ([9]; CDC1551, 168 h, 1 week post-compound treatment, read-out: ATP-IC50 (W1) CDC1551, cholesterol) was 590 nM, the IC50 ([9]; CDC1551, 336 h, 2 weeks post-compound treatment, read-out: ATP-IC50 (W2) CDC1551, cholesterol) was 9400 nM and the IC50 ([10]; CYP125 0.5 μM, cholest-4-en-3-one 5 µM, LC-MS, read-out: CYP125A1 IC50) was 350 ± 40 nM. The Ki ([10]; estimated by Cheng-Prusoff, cholest-4-en-3-one Km CYP125 = 2.1 µM, read-out: CYP125A1 KI) was < 1000 nM and 100 nM, the Ki ([10]; one bound given for both enzymes, read-out: KI, enzyme activity in vitro (CYP125/142)) was under 100 nM and the Ki ([10]; one range given for both enzymes, read-out: KI, catalytic activity in vitro (CYP125/142)) was 50 to 100 nM. The “HepG2 LD50 / IC50, galactose media” value ([11]; galactose-containing media, mean ± SD n = 2) was 3200 nM, the “HepG2 LD50 / IC50, glucose media” value ([11]; standard (glucose-containing) media) was over 50000 nM and the IC50 [12] was 4700 nM. For the same molecule, the “upregulation of iniB reporter” value [13] was “did not induce the upregulation”, the IC50 [14] was 1700 ± 180 nM and the IC50 [15] was under 5000 nM. For the same molecule, the “upregulation of recA reporter” value [16] was “did not induce the upregulation”, the IC50 [17] was 2900 ± 190 nM and the MIC90 ([18]; 168 h, read-out: MIC90 (W1) H37Rv) was 0.78 µM (≈ 0.237 µg/mL). For the same molecule, the MIC90 ([18]; 336 h, MABA 2 weeks post-compound treatment, read-out: MIC90 (W2) H37Rv) was 6.25 µM (≈ 1.9 µg/mL) and the “upregulation of radA reporter” value [19] was “did not induce the upregulation”.
